Experiments:
[1] = Agonist activity at rhesus monkey GCGR; design: species or system Macaca mulatta
Macaca mulatta = species on record: Macaca mulatta; test: Selectivity ratio of EC50 for rhesus monkey GCGR to EC50 for rhesus monkey GLP1R
Homo sapiens = species on record: Homo sapiens; test: Selectivity ratio of EC50 for human GCGR expressed in frozen cells to EC50 for human GLP1R expressed in frozen cells; format: cell-based
Glucagon receptor = Glucagon receptor (Homo sapiens, UniProt P47871); test: Agonist activity at human GCGR expressed in frozen cells assessed as increase in cAMP production measured after 1 hr by HitHunter luminescence assay; format: functional, cell-based
[2] = Agonist activity at rhesus monkey GLP1R; design: species or system Macaca mulatta
[3] = target: Glucagon-like peptide 1 receptor (Homo sapiens, UniProt P43220); test: Agonist activity at human GLP1R expressed in frozen cells assessed as increase in cAMP production measured after 1 hr by HitHunter luminescence assay; format: functional, cell-based
Sequence of Glucagon-like peptide 1 receptor (P43220 whole entry): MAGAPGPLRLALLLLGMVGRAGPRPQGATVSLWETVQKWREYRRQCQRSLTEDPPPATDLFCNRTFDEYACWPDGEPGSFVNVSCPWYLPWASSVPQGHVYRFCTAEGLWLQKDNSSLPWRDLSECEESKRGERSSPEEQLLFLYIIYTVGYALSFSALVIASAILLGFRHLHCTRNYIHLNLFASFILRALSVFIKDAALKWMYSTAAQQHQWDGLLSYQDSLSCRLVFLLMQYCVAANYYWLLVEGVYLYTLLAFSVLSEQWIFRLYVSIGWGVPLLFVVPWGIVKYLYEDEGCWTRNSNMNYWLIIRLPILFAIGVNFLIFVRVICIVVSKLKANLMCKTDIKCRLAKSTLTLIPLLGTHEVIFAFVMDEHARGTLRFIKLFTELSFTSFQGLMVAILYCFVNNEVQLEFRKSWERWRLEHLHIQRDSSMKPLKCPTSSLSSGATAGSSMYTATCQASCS

Sequence of Glucagon receptor (P47871 whole entry): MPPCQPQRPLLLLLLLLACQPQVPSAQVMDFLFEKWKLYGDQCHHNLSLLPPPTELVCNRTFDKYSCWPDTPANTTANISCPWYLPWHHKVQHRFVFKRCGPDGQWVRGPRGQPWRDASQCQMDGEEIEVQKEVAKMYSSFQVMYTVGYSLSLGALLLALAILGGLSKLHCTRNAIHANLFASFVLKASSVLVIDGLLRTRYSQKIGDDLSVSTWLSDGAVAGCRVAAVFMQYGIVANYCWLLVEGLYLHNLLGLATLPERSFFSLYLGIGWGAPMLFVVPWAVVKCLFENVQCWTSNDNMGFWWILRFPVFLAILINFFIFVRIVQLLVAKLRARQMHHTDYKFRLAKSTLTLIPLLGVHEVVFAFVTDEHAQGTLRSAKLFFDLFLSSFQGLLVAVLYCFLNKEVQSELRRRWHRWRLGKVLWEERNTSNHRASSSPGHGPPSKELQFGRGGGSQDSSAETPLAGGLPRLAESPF

Compound	EC50 [1] [nM]	Ratio EC50 (Macaca mulatta)	Ratio EC50 (Homo sapiens)	EC50 (Glucagon receptor) [nM]	EC50 [2] [nM]	EC50 [3] [nM]
CCCCCCCCCCCCCCCC(=O)N[C@@H](CCC(=O)N[C@@H](CCC(=O)NCCCC[C@H](NC(=O)[C@H](CC(=O)O)NC(=O)[C@H](CO)NC(=O)[C@@H](NC(=O)[C@H](Cc1ccccc1)NC(=O)[C@@H](NC(=O)CNC(=O)[C@H](CCC(N)=O)NC(=O)[C@@H](CO)NC(=O)[C@@H](N)Cc1cnc[nH]1)[C@@H](C)O)[C@@H](C)O)C(=O)N[C@@H](CO)C(=O)N[C@@H](CCCCN)C(=O)N[C@@H](Cc1ccc(O)cc1)C(=O)N[C@@H](CC(C)C)C(=O)N[C@@H](CC(=O)O)C(=O)N[C@H](C(=O)N[C@@H](CCCNC(=N)N)C(=O)N[C@@H](C)C(=O)N[C@@H](C)C(=O)N[C@@H](CCC(N)=O)C(=O)N[C@@H](CC(=O)O)C(=O)N[C@@H](Cc1ccccc1)C(=O)N[C@H](C(=O)N[C@@H](CCC(N)=O)C(=O)N[C@@H](Cc1c[nH]c2ccccc12)C(=O)N[C@@H](CC(C)C)C(=O)N[C@@H](CC(C)C)C(=O)N[C@@H](CC(=O)O)C(=O)N[C@H](C(N)=O)[C@@H](C)O)C(C)C)C(C)C)C(=O)O)C(=O)O	0.018	0.9	0.5	0.062	0.021	–
CCCCCCCCCCCCCCCC(=O)N[C@@H](CCC(=O)N[C@@H](CCC(=O)NCCCC[C@H](NC(=O)[C@H](CC(=O)O)NC(=O)[C@H](CO)NC(=O)[C@@H](NC(=O)[C@H](Cc1ccccc1)NC(=O)[C@@H](NC(=O)CNC(=O)[C@H](CCC(N)=O)NC(=O)C(C)(C)NC(=O)[C@@H](N)Cc1cnc[nH]1)[C@@H](C)O)[C@@H](C)O)C(=O)N[C@@H](CO)C(=O)N[C@@H](CCCCN)C(=O)N[C@@H](Cc1ccc(O)cc1)C(=O)N[C@@H](CC(C)C)C(=O)N[C@@H](CC(=O)O)C(=O)NC(C)(C)C(=O)N[C@@H](CCCNC(=N)N)C(=O)N[C@@H](C)C(=O)N[C@@H](C)C(=O)N[C@@H](CCC(N)=O)C(=O)N[C@@H](CC(=O)O)C(=O)N[C@@H](Cc1ccccc1)C(=O)N[C@H](C(=O)N[C@@H](CCC(N)=O)C(=O)N[C@@H](Cc1c[nH]c2ccccc12)C(=O)N[C@@H](CC(C)C)C(=O)N[C@@H](CC(C)C)C(=O)N[C@@H](CC(N)=O)C(=O)N[C@H](C(=O)N[C@@H](CCCCNC(=O)CC[C@H](N)C(=O)O)C(N)=O)[C@@H](C)O)C(C)C)C(=O)O)C(=O)O	0.334	2.4	2	0.058	0.14	0.029
CCCCCCCCCCCCCCCC(=O)N[C@@H](CCC(=O)N[C@@H](CCC(=O)NCCCC[C@H](NC(=O)[C@H](CC(=O)O)NC(=O)[C@H](CO)NC(=O)[C@@H](NC(=O)[C@H](Cc1ccccc1)NC(=O)[C@@H](NC(=O)CNC(=O)[C@H](CCC(N)=O)NC(=O)C(C)(C)NC(=O)[C@@H](N)Cc1cnc[nH]1)[C@@H](C)O)[C@@H](C)O)C(=O)N[C@@H](CO)C(=O)N[C@@H](CCCCN)C(=O)N[C@@H](Cc1ccc(O)cc1)C(=O)N[C@@H](CC(C)C)C(=O)N[C@@H](CC(=O)O)C(=O)NC(C)(C)C(=O)N[C@@H](CCCNC(=N)N)C(=O)N[C@@H](CCCNC(=N)N)C(=O)N[C@@H](C)C(=O)N[C@@H](CCC(N)=O)C(=O)N[C@@H](CC(=O)O)C(=O)N[C@@H](Cc1ccccc1)C(=O)N[C@H](C(=O)N[C@@H](CCC(N)=O)C(=O)N[C@@H](Cc1c[nH]c2ccccc12)C(=O)N[C@@H](CC(C)C)C(=O)N[C@@H](CCSC)C(=O)N[C@@H](CC(N)=O)C(=O)N[C@H](C(=O)N[C@@H](CCCCNC(=O)CC[C@H](N)C(=O)O)C(N)=O)[C@@H](C)O)C(C)C)C(=O)O)C(=O)O	–	–	1.5	0.06	–	0.04
CCCCCCCCCCCCCCCC(=O)N[C@@H](CCC(=O)N[C@@H](CCC(=O)NCCCC[C@H](NC(=O)[C@H](CC(=O)O)NC(=O)[C@H](CO)NC(=O)[C@@H](NC(=O)[C@H](Cc1ccccc1)NC(=O)[C@@H](NC(=O)CNC(=O)[C@H](CCC(N)=O)NC(=O)C(C)(C)NC(=O)[C@@H](N)Cc1cnc[nH]1)[C@@H](C)O)[C@@H](C)O)C(=O)N[C@@H](CO)C(=O)N[C@@H](CCCCN)C(=O)N[C@@H](Cc1ccc(O)cc1)C(=O)N[C@@H](CC(C)C)C(=O)N[C@@H](CC(=O)O)C(=O)NC(C)(C)C(=O)N[C@@H](CCCNC(=N)N)C(=O)N[C@@H](C)C(=O)N[C@@H](C)C(=O)N[C@@H](CCC(N)=O)C(=O)N[C@@H](CC(=O)O)C(=O)N[C@@H](Cc1ccccc1)C(=O)N[C@H](C(=O)N[C@@H](CCC(N)=O)C(=O)N[C@@H](Cc1c[nH]c2ccccc12)C(=O)N[C@@H](CC(C)C)C(=O)N[C@@H](CC(C)C)C(=O)N[C@@H](CC(=O)O)C(=O)N[C@H](C(N)=O)[C@@H](C)O)C(C)C)C(=O)O)C(=O)O	0.022	2.6	1.1	0.039	0.009	0.034
CCCCCCCCCCCCCCCC(=O)N[C@@H](CCC(=O)N[C@@H](CCC(=O)NCCCC[C@H](NC(=O)[C@H](CC(=O)O)NC(=O)[C@H](CO)NC(=O)[C@@H](NC(=O)[C@H](Cc1ccccc1)NC(=O)[C@@H](NC(=O)CNC(=O)[C@H](CCC(N)=O)NC(=O)C(C)(C)NC(=O)[C@@H](N)Cc1cnc[nH]1)[C@@H](C)O)[C@@H](C)O)C(=O)N[C@@H](CO)C(=O)N[C@@H](CCCCN)C(=O)N[C@@H](Cc1ccc(O)cc1)C(=O)N[C@@H](CC(C)C)C(=O)N[C@@H](CC(=O)O)C(=O)NC(C)(C)C(=O)N[C@@H](CCCNC(=N)N)C(=O)N[C@@H](CCCNC(=N)N)C(=O)N[C@@H](C)C(=O)N[C@@H](CCC(N)=O)C(=O)N[C@@H](CC(=O)O)C(=O)N[C@@H](Cc1ccccc1)C(=O)N[C@H](C(=O)N[C@@H](CCC(N)=O)C(=O)N[C@@H](Cc1c[nH]c2ccccc12)C(=O)N[C@@H](CC(C)C)C(=O)N[C@@H](CCSC)C(=O)N[C@@H](CC(N)=O)C(=O)N[C@H](C(N)=O)[C@@H](C)O)C(C)C)C(=O)O)C(=O)O	–	–	1.8	0.035	–	0.02
GLUCAGON	0.003	–	–	–	0.038	–
CCCCCCCCCCCCCCCC(=O)N[C@@H](CCC(=O)N[C@@H](CCC(=O)NCCCC[C@H](NC(=O)[C@H](CC(=O)O)NC(=O)[C@H](CO)NC(=O)[C@@H](NC(=O)[C@H](Cc1ccccc1)NC(=O)[C@@H](NC(=O)CNC(=O)[C@H](CCC(N)=O)NC(=O)C(C)(C)NC(=O)[C@@H](N)Cc1cnc[nH]1)[C@@H](C)O)[C@@H](C)O)C(=O)N[C@@H](CO)C(=O)N[C@@H](CCCCN)C(=O)N[C@@H](Cc1ccc(O)cc1)C(=O)N[C@@H](CC(C)C)C(=O)N[C@@H](CC(=O)O)C(=O)NC(C)(C)C(=O)N[C@@H](CCCNC(=N)N)C(=O)N[C@@H](CCCNC(=N)N)C(=O)N[C@@H](C)C(=O)N[C@@H](CCC(N)=O)C(=O)N[C@@H](CC(=O)O)C(=O)N[C@@H](Cc1ccccc1)C(=O)N[C@H](C(=O)N[C@@H](CCC(N)=O)C(=O)N[C@@H](Cc1c[nH]c2ccccc12)C(=O)N[C@@H](CC(C)C)C(=O)N[C@@H](CC(C)C)C(=O)N[C@@H](CC(N)=O)C(=O)N[C@H](C(=O)N[C@@H](CCCCNC(=O)CC[C@H](N)C(=O)O)C(N)=O)[C@@H](C)O)C(C)C)C(=O)O)C(=O)O	–	–	1.2	0.006	–	0.005

— ChEMBL document CHEMBL5126614 (ACS Med Chem Lett, 2022)
